d = 2'-deoxy (DNA); r = 2'-OH (RNA)

In one series the test system is U87MG transplanted tumor. Nature of the series: U87MG transplanted tumor growth in nude mice. More on the design: species or system BALB/c nude mice. The settings on record: U87MG xenograft, day 13; saRNA (in vivo-jetPEI) 1 mg/kg intratumor days 1, 4, 7, 10; regorafenib 3 mg/kg intragastric daily day 1-12; control 406%. As to the method:
To prepare the saRNA formulation, in vivo-jetPEI (201-10G, Polyplus-transfection, France) was adopted as an saRNA delivery system. The preparation process is briefly described as follows: an saRNA was first diluted in a 10% glucose solution to give a solution A; a required amount of in vivo-jetPEI was diluted in 10% glucose solution to give a solution B; then, equal volumes of the solution A and the solution B were mixed (nitrogen-to-phosphorus ratio: 8; final concentration of glucose: 5%). After mixing the mixture was let to stand under room temperature for 15 minutes for later use.
The glioma cell line U87MG were grown to the logarithmic phase, counted, then subcutaneously inoculated at a concentration of 9×10^7 cells/mL into the right armpit of BALB/c nude mice at 0.1 mL per mouse. […] After the initial administration, the long diameter and short diameter of each tumor were measured with a vernier caliper every two days. The tumor volume was calculated according to the formula V=(l×w^2)/2, wherein 1 represents the longest diameter of the tumor and w represents the diameter parallel to the surface of the tumor and perpendicular to the long diameter. A tumor growth curve and size and morphology of the tumor anatomy were recorded during the administration.

A further series deals with HepG2 transplanted tumor. Description: HepG2 transplanted tumor growth in nude mice. The arrangement: species or system BALB/c nude mice. The following applies: HepG2 xenograft, day 13; saRNA (in vivo-jetPEI) 1 mg/kg intratumor days 1, 4, 7, 10; regorafenib 3 mg/kg intragastric daily day 1-12; vehicle 118%. Here is the method:
To prepare the saRNA formulation, the in vivo-jetPEI (201-10G, Polyplus-transfection, France) was adopted as an saRNA delivery system. The preparation process is briefly described as follows. An saRNA was first diluted in 10% glucose solution to obtain a solution A. According to the instructions of the manufacturer, a required amount of in vivo-jetPEI was diluted in 10% glucose solution to obtain a solution B. Equal volumes of the solution A and the solution B were mixed (nitrogen-to-phosphorus ratio: 8; final concentration of glucose: 5%). After mixing, the mixture was let to stand at room temperature for 15 minutes for later use.
HepG2 cells in the logarithmic growth phase were obtained and counted, and then the cell suspension was regulated to 5×10^7 cells/mL and subcutaneously inoculated into the right armpit of BALB/c nude mice at a volume of 0.1 mL per mouse. […] Starting from the initial administration, the long diameter and the short diameter of each tumor were measured with a vernier caliper every two days. The tumor volume was calculated according to the formula V=(l×w^2)/2, wherein 1 represents the longest diameter of the tumor and w represents the diameter parallel to the surface of the tumor and perpendicular to the long diameter. A tumor growth curve and size and morphology of the tumor after anatomy were recorded during the administration.

For series [1], the system named is lung cancer cell line A549. Nature of the series: Cell viability by CCK-8 method, A549. Format: cell-based, human. The settings on record: A549, 10 nM, 72 h, FIG. 7B. As to the method:
(§1) 8 LHPP promoter-targeting saRNAs were individually transfected into cancer cells at 10 nM for 72 h. In FIG. 7A, the expression level of LHPP mRNA was analyzed by RT-qPCR. In FIG. 7B, cell viability in the saRNA treatment group was evaluated by the CCK-8 method and recorded as a percentage relative to the viability of cells in a control (Mock) treatment group.
(§2) The cell viability was detected by the following CCK-8 method: the cCells were plated into a 96-well plate at 3-5×10^3 cells/well, cultured overnight, and transfected with the oligonucleotide duplexes. After 72 hour of transfection, 10 uL of CCK-8 solution (Dojindo Molecular Technologies) was added into each well. After 1 hour of incubation at 37° C., a microplate reader was used to measure absorbances at 450 nm.
(§3) In order to further evaluate the effect of LHPP saRNAs in inducing the mRNA expression of the LHPP gene and inhibiting the proliferation of cancer cells, eight screened saRNAs (RAG7-132, RAG7-133, RAG7-139, RAG7-177, RAG7-178, RAG7-694, RAG7-707 and RAG7-892) each were transfected into the liver cancer cell lines Huh7 (Medical Cell Resource Center, Tohoku University, Japan), HepG2 (ATCC), Hep3B (ATCC), Li-7 (Medical Cell Resource Center, Tohoku University, Japan) and SK-HEP-1 (ATCC), a lung cancer cell line A549 (ATCC), a bladder cancer cell line T24 (ATCC), a prostatic cancer cell line PC3 (ATCC), and a glioma cell line U87MG (ATCC). The mRNA expression and cell viability of the transfected cells were measured.

The test system of the next series is Huh7 cells. Description: Cell viability by CCK-8 method, Huh7. Type of series: cell-based, human. The settings on record: Huh7, 10 nM, 72 h, FIG. 6B. Here is the method: The 290 saRNAs targeting the LHPP promoter were individually transfected into Huh7 cells, and 72 hour later, one-step RT-qPCR was employed to analyze the expression levels of LHPP mRNA and cell viability was detected by the CCK-8 method.
as §2, §3
(Formazan colour is commonly taken as a measure of viable cells.)

The test system of series [2] is prostatic cancer cell line PC3. Description: Cell viability by CCK-8 method, PC3. Format: cell-based, human. The settings on record: PC3, 10 nM, 72 h, FIG. 7B. Here is the method: as §1, §2, §3
For a further series, the system named is SK-HEP-1 cells. Nature of the series: Cell viability by CCK-8 method, SK-HEP-1. Format: cell-based, human. The settings on record: SK-HEP-1, 10 nM, 72 h, FIG. 6B. As to the method:
(§4) 8 LHPP promoter-targeting saRNAs were individually transfected into liver cancer cells at 10 nM for 72 h. In FIG. 6A, the expression level of LHPP mRNA was analyzed by RT-qPCR. In FIG. 6B, cell viability in the saRNA treatment group was evaluated by the CCK-8 method and recorded as a percentage relative to the viability of cells in a control (Mock) treatment group.
(§5) The cell viability was detected by the following CCK-8 method: the cCells were plated into a 96-well plate at 3-5×10^3 cells/well, cultured overnight, and transfected with the oligonucleotide duplexes. After 72 hour of transfection, 10 uL of CCK-8 solution (Dojindo Molecular Technologies) was added into each well. After 1 hour of incubation at 37° C., a microplate reader was used to measure absorbances at 450 nm. […]

Series [3] relates to LHPP gene. Description: High-throughput screening of saRNAs targeting LHPP promoter: LHPP mRNA by one-step RT-qPCR in Huh7 cells. Type of series: cell-based, human. The settings on record: 10 nM saRNA, 72 hours, relative to control (Mock). The essentials:
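LHPP transcript level relative to mock, normalised to the geometric mean of the HPRT1 and TBP reference genes, measured by one-step RT-qPCR on crude lysates. Huh7 cells had been RNAiMax-transfected with each saRNA at 10 nM for 72 h.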

A further series concerns Hep3B cells. Description: Cell viability by CCK-8 method, Hep3B. Format: cell-based, human. The following applies: 10 nM, 72 h, FIG. 6B. As to the method:
as §4, §5

Series [4] relates to LHPP gene. Nature of the series: LHPP mRNA expression by RT-qPCR in cancer cell lines. Type of series: cell-based, human. The following applies: 72 h. As to the method: as §4, §1, §3
A further series deals with HepG2 cells. Description: Cell viability by CCK-8 method, HepG2. The following applies: HepG2, 10 nM, 72 h, FIG. 6B. Type of series: cell-based, human. Here is the method: as §4, §5
The test system of series [5] is bladder cancer cell line T24. Description: Cell viability by CCK-8 method, T24. Format: cell-based, human. The settings on record: T24, 10 nM, 72 h, FIG. 7B. As to the method:
as §1, §2, §3

As for `CNC(=O)c1cc(Oc2ccc(NC(=O)Nc3ccc(Cl)c(C(F)(F)F)c3)c(F)c2)ccn1` [regorafenib, Regorafenib, reference compound], the “tumor volume increase compared with that at the beginning of treatment” value amounted to 251% with U87MG transplanted tumor and 70% in the series with HepG2 transplanted tumor.

Regarding “RAG7-694: saRNA duplex; sense AGGUCCUAUGCAUCCUCAUTT (SEQ ID NO: 3), antisense AUGAGGAUGCAUAGGACCUTT (SEQ ID NO: 167) (sugars from the 5' end r19 d2, backbone not given here)”, the “cell proliferation (cell viability, CCK-8)” value (in [1]; in the series with Huh7 cells; in series [2]; with SK-HEP-1 cells; in the series on Hep3B cells; with HepG2 cells) was “inhibited cell proliferation” throughout. Moreover, the “cell proliferation (cell viability, CCK-8)” value in series [5] is recorded as “inhibited cell proliferation”. Besides, the “Fold of changes in relative LHPP mRNA expression level” value in the series on LHPP gene [3] was found to be 1.88 fold. Further, the “Fold of changes in relative LHPP mRNA expression level (log2)” value with LHPP gene [3] was determined as 0.91 log2. Also, the “expression of LHPP gene (mRNA)” value with LHPP gene [4] (A549, 10 nM, FIG. 7A) is given as “induced the expression of LHPP gene to different degrees”; with LHPP gene [4] (Hep3B, 10 nM, FIG. 6A), “induced the expression of LHPP gene to different degrees”; in the series with LHPP gene [4] (HepG2, 10 nM, FIG. 6A), “induced the expression of LHPP gene to different degrees”; with LHPP gene [4] (Huh7, 10 nM, FIG. 6A) it was “induced the expression of LHPP gene to different degrees”; in the series with LHPP gene [4] (PC3, 10 nM, FIG. 7A), “induced the expression of LHPP gene to different degrees”; in the series with LHPP gene [4] (SK-HEP-1, 10 nM, FIG. 6A) it was “induced the expression of LHPP gene to different degrees”. For the same compound, the “expression of LHPP gene (mRNA)” value in the series on LHPP gene [4] (T24, 10 nM, FIG. 7A) is “induced the expression of LHPP gene to different degrees”.

Values taken from patent US20220096516A1, “OLIGONUCLEOTIDE MOLECULE AND APPLICATION THEREOF IN TUMOR THERAPY” (Ractigen Therapeutics, priority 2019, published 2022).
